Measurements from patent US6670378B2, “Method of treating Parkinson's disease” (Pharmacia & Upjohn Company, priority 2001, dated 2003).

Legend:
[1] = Plasma/blood levels of the piperidine derivative and its N-dealkylated metabolite after two weeks of chronic dosing (HPLC-MS/MS); type: in vivo, Male Sprague-Dawley rats; conditions: plasma one hour after evening dose
Description: In order to perform the brain monoamine neurochemistry analysis, the brains were harvested following 14 days of chronic drug treatment. This was performed by decapitating the rats one hour after the evening drug administration, collecting the trunk blood into EDTA-treated tubes, immediately removing the brains, freezing the brains in small aluminum pans on dry ice and then storing at −80° C. […] Blood was spun and plasma was frozen at −80° C. for analysis of S-(−)-3-[3-(methylsulfonyl) phenyl]-1-propyl-piperidine and its major N-dealkylated metabolite. Plasma concentrations of S-(−)-3-[3-(methylsulfonyl)phenyl]-1-propyl-piperidine and its despropyl metabolite were quantitated using on-line high performance liquid chromatography (HPLC) tandem mass spectroscopy (MS/MS) with an atmospheric pressure chemical ionization (APCI) interface. […] S-(−)-3-[3-(methylsulfonyl)phenyl]-1-propyl-piperidine (0.1 μg/mL, 25 μL) were quantitatively added to 100 μL of plasma sample. […] The linear range of the calibration curve calculated in plasma was 0.02 nmol/mL to 40 nmol/mL for S-(−)-3-[3-(methylsulfonyl) phenyl]-1-propyl-piperidine and 00.01 nmol/mL to 20 nmol/mL for its N-dealkylated metabolite. […] Product ions with m/z 173 were monitored following CID of the protonated stable isotope (m/z 286). […] Study sample concentrations were calculated by reference to this equation.

[2] = tested on: 6-OH-dopamine lesioned rats; experiment: L-DOPA induced behavioral sensitization (contralateral rotations) in unilaterally 6-OH-dopamine lesioned rats; type: in vivo, Male Sprague-Dawley rats
Description: Repeated administration of dopamine agonists to 6-OH-dopamine lesioned rats results in behavioral sensitization or enhanced rotational behavior in the rats. This effect is believed to mirror the development of motor complications including L-DOPA induced involuntary movements such as dyskinesias in Parkinson's Disease patients.
Male Sprague-Dawley rats having lesion surgery were provided. […] The rats were anesthetized with 60 mg/kg i.p. sodium pentobarbital and then placed in a stereotaxic apparatus. A small hole was drilled through the skull of the rats and a 30-gauge stainless tubing was lowered to the right (one study) or left (two studies) medial forebrain bundle. 8 μg/4 μL (8μ free base) of 6-OH-dopamine solution was injected into the medial forebrain bundle at a rate of 1 μL/min. Following surgery, the incision was closed with clips and ointment containing a local anesthetic/antibiotic was applied to the incision area. The rats were returned to their home cages and allowed one week to recover from surgery.
The rats were group housed in wire mesh hanging cages with free access to food and water and kept on 12-hour light:12-hour dark cycles with the light being on from 6:00 a.m. to 6:00 p.m. All behavioral testing was done between 9:00 a.m. to 6:00 p.m.
Two to three weeks after the surgery, the rats were screened to assess the degree of lesion by measuring their net turning response to a single dose of 0.1 mg/kg s.c. of apomorphine HCl in 0.9% saline. The total turns were recorded in discrete 10 minute intervals. Each rat was connected by a lightweight harness and tether to a rotometer comprising a swivel with a mechanical counter at the top of a clear plastic cylindrical cage. The rats were used for the experiments if they had at least 30 contralateral turns in 10 minutes, with contralateral being away from the side of the lesion. In addition to screening out incomplete lesions, the response to apomorphine was used to separate the rats into balanced treatment groups, prior to the start of chronic dosing. The rats were ranked by cumulative net turning response and an equal number of high and low responders were placed in each treatment group.
All of the injections were given in a volume of 2 ml/kg and, with the exception of L-DOPA+benserazide 15+5 mg/kg, i.p., all injections were subcutaneous. All chronic treatment was given bid, 6-8 hours apart. […] S-(−)-3-[3-(methylsulfonyl)phenyl]-1-propyl-piperidine was dissolved in 0.9% sterile saline and administered at either 10 or 30 mg/kg subcutaneously 20 minutes before L-DOPA or together with the L-DOPA. The basal turning measurement started immediately after the rats received the first injections on day 1 with the activity being measured for 4-6 hours after dosing. The turning activity was measured again on days 7 and 14 and compared to the activity on day 1. […] Analysis of variance was used for statistical calculations and probability levels of <0.05 was regarded as being statistically significant.

[3] = Post mortem brain (prefrontal cortex) levels of L-DOPA after 14 days of chronic treatment; conditions: L-DOPA alone vs L-DOPA combined with the piperidine derivative
Description: In order to perform the brain monoamine neurochemistry analysis, the brains were harvested following 14 days of chronic drug treatment. This was performed by decapitating the rats one hour after the evening drug administration, collecting the trunk blood into EDTA-treated tubes, immediately removing the brains, freezing the brains in small aluminum pans on dry ice and then storing at −80° C. Brain levels of L-DOPA and dopamine were analyzed by means of liquid chromatography and electrochemical detection according to standard methodology described in the literature.
After two weeks of the administering of the L-DOPA and benserazide, tissues were taken post-mortem from the unilateral striatum and prefrontal cortex and analyzed for monoamines and their metabolite levels.

[4] = tested on: unilaterally dopamine-lesioned monkeys; conditions: cited from earlier work
[5] = tested on: rotational behavior induced by apomorphine, L-DOPA and quinpirole; conditions: in vivo; cited from earlier work

Which “effect of chronic treatment with L-DOPA on blood levels” value [1] does the source give for `CS(=O)(=O)c1cccc([C@@H]2CCCNC2)c1` [N-dealkylated metabolite] here?
The value was “did not significantly effect”.

What does the source list for `N[C@@H](Cc1ccc(O)c(O)c1)C(=O)O` [L-DOPA, reference compound]?
rotational behavior in animals with unilateral lesions of the nigro-striatal dopamine neurons ([2]; L-DOPA+benserazide 15+5 mg/kg i.p.): induces rotational behavior; behavioral sensitization, measured as enhanced number of contralateral rotations ([2]; L-DOPA+benserazide 15+5 mg/kg i.p. bid, two separate experiments): repeatedly exhibited

For `CCCN1CCC[C@@H](c2cccc(S(C)(=O)=O)c2)C1` [S-(−)-3-[3-(methylsulfonyl)phenyl]-1-propyl-piperidine], which “effect of chronic treatment with L-DOPA on blood levels” value [1] is on record?
Its value is “did not significantly effect”.

And the “effect of co-treatment on brain levels of L-DOPA” value [3]?
The value was “did not appear to effect the brain levels of L-DOPA”.

And the “L-DOPA-induced contraversive turning behavior” value [4]?
The value was “attenuating”.

And the “motor impairment such as akinesia or dystonia” value [5]?
Its value is “without inducing motor impairment”.

And the “rotational behavior induced by apomorphine, L-DOPA and quinpirole” value [5]?
Its value is “attenuated”.

And the “behavioral sensitization induced by L-DOPA (enhanced number of contralateral rotations)” value ([2]; 10 or 30 mg/kg s.c. bid, 20 minutes before or together with L-DOPA+benserazide 15+5 mg/kg i.p., days 7 and 14 vs day 1)?
The value was “blocked by both doses”.

What about the “antagonism of basal rotational response induced by L-DOPA” value ([2]; 10 or 30 mg/kg s.c. with L-DOPA+benserazide 15+5 mg/kg i.p., both experiments) of the same compound?
The value was “in neither experiment did the piperidine derivative antagonize the basal rotational response”.

And the “rotational behavior or akinesia induced by the compound by itself” value ([2]; compound alone, s.c.)?
Its value is “did not induce rotational behavior or akinesia by itself”.

And the “time course of antagonism of L-DOPA sensitization (simultaneous vs 20 minutes before L-DOPA)” value ([2]; given simultaneously with L-DOPA (FIG. 2) vs 20 minutes before (FIG. 1))?
The value was “most optimal antagonism occurred when the piperidine derivative was given simultaneously with L-DOPA”.
